Measured values taken from EP2488183B1, “Composition for inhibiting TGF-beta comprising imidazopurine derivatives” (Korea Institute of Radiological & Medical Sciences, priority 2009, dated 2011).

System: IMR-90 cells
Experiment: Western blotting of fibrosis markers in TGF-β-treated lung fibrocytes
Assay type: cell-based, human
Conditions: IMR-90, 0, 1, 5 and 10 µM added 2 h before TGF-β (5 ng/ml), 24 h; FIG. 7a
Method: IMR-90 cells, human normal lung fibrocytes, were purchased from American Type Culture Collection (ATCC, U.S.A.), and were incubated under 5% CO2 and at a temperature of 37°C for 24 hours in a modified Eagle's medium (MEM) supplemented with 10% FBS serum, 100 units/ml of penicillin, and 100 µg/ml of streptomycin, 1 mM sodium pyruvate, and 0.1 mM non-essential amino acids. Then, two hours before treatment with TGF-β (5ng/ml), compound I was added to the cell culture at a varying concentration (0, 1, 5 and 10 µM) and then, the IMR-90 cells were incubated for 24 hours. Then, as described in Example 2, western blotting was performed to identify inhibition of differentiation of lung fibrocytes by compound I based on expression levels of α-SMA and fibronectin, which are fibrosis marker molecules. […] Also, in extracellular matrix, the amount of collagen, which is one of important materials regarding fibrosis, was measured according to the specification of the manufacturer by using a collagen Sircol assay kit (Biocolor, England).

## Cc1cn2c(nc3c2c(=O)n(Cc2ccccc2Cl)c(=O)n3C)[nH]1 [compound I, 3-(2-chlorobenzyl)-1,7-dimethyl-1H-imidazo[2,1-f]purine-2,4(3H,8H)-dion]
  fibrosis in human lung fibrocytes (expression levels of α-SMA and fibronectin): concentration-dependently decreased fibrosis
